For 11 molecules, EC50 results are on record in patent US20240018145A1, “[…]-DEPENDENT EN[…] TREATING OR […]” (priority 2020, published 2024).

One assay relates to FLU A (PR/8/34). Kind of assay: Flu A Neuraminidase Antiviral Assay. Type of assay: cell-based.
Conditions: not given
Turning to `CC1(c2ccccc2)CCCC2N(CCC(F)(F)F)C(=O)c3c(O)c(=O)ccn3N21` (single isomer, unassigned) [Compound 38B, 7-hydroxy-1-methyl-1-phenyl-5-(3,3,3-trifluoropropyl)-1,2,3,4,4a,5-hexahydrodipyrido[1,2-b:2′,1′-f][1,2,4]triazine-6,8-dione], a half-maximal response (EC50) required 0.0058 µM.

On to `CN1C(=O)c2c(O)c(=O)ccn2N2C(c3ccccc3)C(CC(F)(F)F)CCC12C` (single isomer, unassigned) [Compound 111A, 7-hydroxy-4a,5-dimethyl-1-phenyl-2-(2,2,2-trifluoroethyl)-1,2,3,4,4a,5-hexahydrodipyrido[1,2-b:2′,1′-f][1,2,4]triazine-6,8-dione], for which the EC50 (commonly the concentration that produces a half-maximal response) is > 8.1 µM.

In the case of `CCCC1CCC2N(CC)C(=O)c3c(O)c(=O)ccn3N2C1c1ccccc1F` (single isomer, unassigned) [Compound 96B, 5-ethyl-1-(2-fluorophenyl)-7-hydroxy-2-propyl-1,2,3,4,4a,5-hexahydrodipyrido[1,2-b:2′,1′-f][1,2,4]triazine-6,8-dione], the concentration giving a half-maximal response (EC50) stood at 0.0022 µM.

In the case of `CN1C(=O)c2c(O)c(=O)ccn2N2C(c3ccccc3C(F)(F)F)CCC12` (single isomer, unassigned) [Compound 15A, 6-hydroxy-4-methyl-1-(2-(trifluoromethyl)phenyl)-2,3,3a,4-tetrahydro-1H-pyrido[2,1-f]pyrrolo[1,2-b][1,2,4]triazine-5,7-dione], the EC50 is > 8.1 µM.

For `COc1ccccc1C1CCCC2N(C)C(=O)c3c(O)c(=O)ccn3N12` (single isomer, unassigned) [Compound 19B, 7-hydroxy-1-(2-methoxyphenyl)-5-methyl-1,2,3,4,4a,5-hexahydrodipyrido[1,2-b:2′,1′-f][1,2,4]triazine-6,8-dione], the EC50 worked out at 0.348 µM.

`CN1C(=O)c2c(O)c(=O)ccn2N2C(c3ccccc3)C3CCC(C3)C12` (single isomer, unassigned) [Compound 9A, 4-hydroxy-6-methyl-11-phenyl-6a,7,8,9,10,11-hexahydro-3H-7,10-methanopyrido[1′,2′:1,6][1,2,4]triazino[2,3-a]azepine-3,5(6H)-dione] yielded an EC50 of 6.21 µM.

In the case of `CN1C(=O)c2c(O)c(=O)ccn2N2C(c3ccccc3)C(c3ccc(F)c(F)c3F)CCC12` (single isomer, unassigned) [Compound 85C, 7-hydroxy-5-methyl-1-phenyl-2-(2,3,4-trifluorophenyl)-1,2,3,4,4a,5-hexahydrodipyrido[1,2-b:2′,1′-f][1,2,4]triazine-6,8-dione], the EC50 is > 0.81 µM.

`CN1C(=O)c2c(O)c(=O)ccn2N2C(c3ccc(F)cc3)CCCC12` (single isomer, unassigned) [Compound 2B, 1-(4-fluorophenyl)-7-hydroxy-5-methyl-1,2,3,4,4a,5-hexahydrodipyrido[1,2-b:2′,1′-f][1,2,4]triazine-6,8-dione] yielded an EC50 of 5.92 µM.

On to `CN1C(=O)c2c(O)c(=O)ccn2N2C(c3c(F)cccc3F)C(CC(F)(F)F)CCC12` (single isomer, unassigned) [Compound 123C, 1-(2,6-difluorophenyl)-7-hydroxy-5-methyl-2-(2,2,2-trifluoroethyl)-1,2,3,4,4a,5-hexahydrodipyrido[1,2-b:2′,1′-f][1,2,4] triazine-6,8-dione], for which the EC50 was > 8.1 µM.

`CCCC1CCC2N(C)C(=O)c3c(O)c(=O)ccn3N2C1(C)c1ccccc1` (single isomer, unassigned) [Compound 33C, 7-hydroxy-1,5-dimethyl-1-phenyl-2-propyl-1,2,3,4,4a,5-hexahydrodipyrido[1,2-b:2′,1′-f][1,2,4]triazine-6,8-dione] registered an EC50 of 1.31 µM.

The assay is the same for the next values; noted with them: MDCK, 48 h.
Molecule `CN1C(=O)c2c(O)c(=O)ccn2N2C(c3ccccc3)CCC12` (centres unmarked) [Compound 60B, 6-hydroxy-4-methyl-1-phenyl-2,3,3a,4-tetrahydro-1H-pyrido[2,1-f]pyrrolo[1,2-b][1,2,4]triazine-5,7-dione] returned an EC50 of 0.884 µM. This counts as sub-micromolar.
